Values after ≈ are worked out from the molar mass of the structure shown.
Tests used:
Assay type in all cases: functional
Bacillus subtilis [1] = experiment: Antibacterial activity against Bacillus subtilis by microdilution method
Pseudomonas fluorescens [2] = experiment: Antibacterial activity against Pseudomonas fluorescens by microdilution method
Erwinia amylovora [3] = experiment: Antibacterial activity against Erwinia amylovora by microdilution method
[4] = test system: Pectobacterium carotovorum; experiment: Antibacterial activity against Erwinia carotovora by microdilution method
Xanthomonas campestris [5] = experiment: Antibacterial activity against Xanthomonas campestris by microdilution method
Bacillus subtilis [6] = experiment: Bactericidal activity against Bacillus subtilis
Pseudomonas fluorescens [7] = experiment: Bactericidal activity against Pseudomonas fluorescens
Erwinia amylovora [8] = experiment: Bactericidal activity against Erwinia amylovora
[9] = test system: Pectobacterium carotovorum; experiment: Bactericidal activity against Erwinia carotovora
Xanthomonas campestris [10] = experiment: Bactericidal activity against Xanthomonas campestris
Aspergillus fumigatus [11] = experiment: Antifungal activity Aspergillus fumigatus by microdilution method
Aspergillus versicolor [12] = experiment: Antifungal activity Aspergillus versicolor by microdilution method
Aspergillus ochraceus [13] = experiment: Antifungal activity Aspergillus ochraceus by microdilution method
Aspergillus niger [14] = experiment: Antifungal activity Aspergillus niger by microdilution method
Trichoderma viride [15] = experiment: Antifungal activity Trichoderma viride by microdilution method
Talaromyces funiculosus [16] = experiment: Antifungal activity Penicillium funiculosum by microdilution method
Penicillium ochrochloron [17] = experiment: Antifungal activity Penicillium ochrochloron by microdilution method
Penicillium cyclopium [18] = experiment: Antifungal activity Penicillium verrucosum var. cyclopium by microdilution method
Aspergillus fumigatus [19] = experiment: Fungicidal activity Aspergillus fumigatus
Aspergillus versicolor [20] = experiment: Fungicidal activity Aspergillus versicolor
Aspergillus ochraceus [21] = experiment: Fungicidal activity Aspergillus ochraceus
Aspergillus niger [22] = experiment: Fungicidal activity Aspergillus niger
Trichoderma viride [23] = experiment: Fungicidal activity Trichoderma viride
Talaromyces funiculosus [24] = experiment: Fungicidal activity Penicillium funiculosum
Penicillium ochrochloron [25] = experiment: Fungicidal activity Penicillium ochrochloron
Penicillium cyclopium [26] = experiment: Fungicidal activity Penicillium verrucosum var. cyclopium

Row | MIC (Bacillus subtilis [1]) [µM] | MIC (Pseudomonas fluorescens [2]) [µM] | MIC (Erwinia amylovora [3]) [µM] | MIC [4] [µM] | MIC (Xanthomonas campestris [5]) [µM] | SMILES | MBC (Bacillus subtilis [6]) [µM] | MBC (Pseudomonas fluorescens [7]) [µM] | MBC (Erwinia amylovora [8]) [µM] | MBC [9] [µM] | MBC (Xanthomonas campestris [10]) [µM] | MIC (Aspergillus fumigatus [11]) [µM] | MIC (Aspergillus versicolor [12]) [µM] | MIC (Aspergillus ochraceus [13]) [µM] | MIC (Aspergillus niger [14]) [µM] | MIC (Trichoderma viride [15]) [µM] | MIC (Talaromyces funiculosus [16]) [µM] | MIC (Penicillium ochrochloron [17]) [µM] | MIC (Penicillium cyclopium [18]) [µM] | MFC (Aspergillus fumigatus [19]) [µM] | MFC (Aspergillus versicolor [20]) [µM] | other results
1 | 17 (≈ 8.03 µg/mL) | 9 (≈ 4.25 µg/mL) | 17 (≈ 8.03 µg/mL) | 4.5 (≈ 2.13 µg/mL) | 17 (≈ 8.03 µg/mL) | CC(C)(C)c1cc(/C=C(/C(=O)c2ccc(Cl)cc2Cl)n2cncn2)cc(C(C)(C)C)c1O | 17 (≈ 8.03 µg/mL) | 9 (≈ 4.25 µg/mL) | 17 (≈ 8.03 µg/mL) | 9 (≈ 4.25 µg/mL) | 17 (≈ 8.03 µg/mL) | 80 (≈ 37.8 µg/mL) | 80 (≈ 37.8 µg/mL) | 60 (≈ 28.3 µg/mL) | 80 (≈ 37.8 µg/mL) | 30 (≈ 14.2 µg/mL) | 120 (≈ 56.7 µg/mL) | 80 (≈ 37.8 µg/mL) | 160 (≈ 75.6 µg/mL) | 160 (≈ 75.6 µg/mL) | 160 (≈ 75.6 µg/mL) | MFC (Aspergillus ochraceus [21]): 160 µM (≈ 75.6 µg/mL); MFC (Aspergillus niger [22]): 160 µM (≈ 75.6 µg/mL); MFC (Trichoderma viride [23]): 80 µM (≈ 37.8 µg/mL); MFC (Talaromyces funiculosus [24]): 160 µM (≈ 75.6 µg/mL); MFC (Penicillium ochrochloron [25]): 160 µM (≈ 75.6 µg/mL); MFC (Penicillium cyclopium [26]): 320 µM (≈ 151 µg/mL)
2 | 5.4 (≈ 1.99 µg/mL) | 2.7 (≈ 0.995 µg/mL) | 2.7 (≈ 0.995 µg/mL) | 2.7 (≈ 0.995 µg/mL) | 2.7 (≈ 0.995 µg/mL) | CN(C)c1ccc(/C=C(/C(=O)c2ccc3ccccc3c2)n2cncn2)cc1 | 5.4 (≈ 1.99 µg/mL) | 2.7 (≈ 0.995 µg/mL) | 5.4 (≈ 1.99 µg/mL) | 2.7 (≈ 0.995 µg/mL) | 5.4 (≈ 1.99 µg/mL) | 140 (≈ 51.6 µg/mL) | 140 (≈ 51.6 µg/mL) | 70 (≈ 25.8 µg/mL) | 140 (≈ 51.6 µg/mL) | 70 (≈ 25.8 µg/mL) | 190 (≈ 70 µg/mL) | 140 (≈ 51.6 µg/mL) | 140 (≈ 51.6 µg/mL) | 270 (≈ 99.5 µg/mL) | 270 (≈ 99.5 µg/mL) | MFC (Aspergillus ochraceus [21]): 140 µM (≈ 51.6 µg/mL); MFC (Aspergillus niger [22]): 270 µM (≈ 99.5 µg/mL); MFC (Trichoderma viride [23]): 140 µM (≈ 51.6 µg/mL); MFC (Talaromyces funiculosus [24]): 270 µM (≈ 99.5 µg/mL); MFC (Penicillium ochrochloron [25]): 270 µM (≈ 99.5 µg/mL); MFC (Penicillium cyclopium [26]): 270 µM (≈ 99.5 µg/mL)
3 | 0.2 (≈ 0.0699 µg/mL) | 8.6 (≈ 3 µg/mL) | 0.25 (≈ 0.0874 µg/mL) | 0.1 (≈ 0.0349 µg/mL) | 0.2 (≈ 0.0699 µg/mL) | CC1(C)S[C@@H]2[C@H](NC(=O)[C@H](N)c3ccccc3)C(=O)N2[C@H]1C(=O)O [AMPICILLIN] | 0.2 (≈ 0.0699 µg/mL) | 8.6 (≈ 3 µg/mL) | 0.5 (≈ 0.175 µg/mL) | 0.2 (≈ 0.0699 µg/mL) | 0.2 (≈ 0.0699 µg/mL) | – | – | – | – | – | – | – | – | – | – | –

More lines, now with the values behind:

Row | SMILES | MIC (Bacillus subtilis [1]) [µM] | MIC (Pseudomonas fluorescens [2]) [µM] | MIC (Erwinia amylovora [3]) [µM] | MIC [4] [µM] | MIC (Xanthomonas campestris [5]) [µM] | MBC (Bacillus subtilis [6]) [µM] | MBC (Pseudomonas fluorescens [7]) [µM] | MBC (Erwinia amylovora [8]) [µM] | MBC [9] [µM] | MBC (Xanthomonas campestris [10]) [µM] | MIC (Aspergillus fumigatus [11]) [µM] | MIC (Aspergillus versicolor [12]) [µM] | MIC (Aspergillus ochraceus [13]) [µM] | MIC (Aspergillus niger [14]) [µM] | MIC (Trichoderma viride [15]) [µM] | MIC (Talaromyces funiculosus [16]) [µM] | MIC (Penicillium ochrochloron [17]) [µM] | MIC (Penicillium cyclopium [18]) [µM] | MFC (Aspergillus fumigatus [19]) [µM] | MFC (Aspergillus versicolor [20]) [µM] | other results
4 | c1ccc(-c2ccc(C(c3ccccc3)n3ccnc3)cc2)cc1 (centres undefined) [BIFONAZOLE] | – | – | – | – | – | – | – | – | – | – | 480 (≈ 149 µg/mL) | 320 (≈ 99.3 µg/mL) | 480 (≈ 149 µg/mL) | 480 (≈ 149 µg/mL) | 480 (≈ 149 µg/mL) | 640 (≈ 199 µg/mL) | 640 (≈ 199 µg/mL) | 320 (≈ 99.3 µg/mL) | 640 (≈ 199 µg/mL) | 640 (≈ 199 µg/mL) | MFC (Aspergillus ochraceus [21]): 640 µM (≈ 199 µg/mL); MFC (Aspergillus niger [22]): 640 µM (≈ 199 µg/mL); MFC (Trichoderma viride [23]): 640 µM (≈ 199 µg/mL); MFC (Talaromyces funiculosus [24]): 810 µM (≈ 251 µg/mL); MFC (Penicillium ochrochloron [25]): 810 µM (≈ 251 µg/mL); MFC (Penicillium cyclopium [26]): 640 µM (≈ 199 µg/mL)
5 | O=C(N[C@H](CO)[C@H](O)c1ccc([N+](=O)[O-])cc1)C(Cl)Cl [CHLORAMPHENICOL] | 0.3 (≈ 0.0969 µg/mL) | 0.5 (≈ 0.162 µg/mL) | 0.15 (≈ 0.0485 µg/mL) | 0.25 (≈ 0.0808 µg/mL) | 0.1 (≈ 0.0323 µg/mL) | 0.3 (≈ 0.0969 µg/mL) | 0.5 (≈ 0.162 µg/mL) | 0.3 (≈ 0.0969 µg/mL) | 0.5 (≈ 0.162 µg/mL) | 0.1 (≈ 0.0323 µg/mL) | – | – | – | – | – | – | – | – | – | – | –
6 | CC(=O)N1CCN(c2ccc(OCC3COC(Cn4ccnc4)(c4ccc(Cl)cc4Cl)O3)cc2)CC1 (centres undefined) [KETOCONAZOLE] | – | – | – | – | – | – | – | – | – | – | 380 (≈ 202 µg/mL) | 380 (≈ 202 µg/mL) | 280 (≈ 149 µg/mL) | 380 (≈ 202 µg/mL) | 1880 (≈ 999 µg/mL) | 380 (≈ 202 µg/mL) | 1880 (≈ 999 µg/mL) | 380 (≈ 202 µg/mL) | 940 (≈ 500 µg/mL) | 940 (≈ 500 µg/mL) | MFC (Aspergillus ochraceus [21]): 380 µM (≈ 202 µg/mL); MFC (Aspergillus niger [22]): 940 µM (≈ 500 µg/mL); MFC (Trichoderma viride [23]): 2820 µM (≈ 1500 µg/mL); MFC (Talaromyces funiculosus [24]): 940 µM (≈ 500 µg/mL); MFC (Penicillium ochrochloron [25]): 2820 µM (≈ 1500 µg/mL); MFC (Penicillium cyclopium [26]): 570 µM (≈ 303 µg/mL)

Source: ChEMBL document CHEMBL4725318, “New vinyl-1,2,4-triazole derivatives as antimicrobial agents: Synthesis, biological evaluation and molecular docking studies” (2020)
